How the values were obtained:
Assay in all cases: KINOMEscan competition binding
Settings in all cases: compound 10.0 µM
[1] = target: CDKL1 (human) (UniProt Q00532)
[2] = system: PIK3CA (human), P42336 [E545K]
[3] = target: RPS6KB1 (human) (UniProt P23443)
[4] = target: DDR1 (human) (UniProt Q08345)
[5] = target: HIPK3 (human) (UniProt Q9H422)
[6] = target: CDK4 CCND1 (human) (UniProt P11802+P24385)
[7] = target: PIK3CA (human) (UniProt P42336)
[8] = target: PRPF4B (human) (UniProt Q13523)
[9] = target: EIF2AK1 (human) (UniProt Q9BQI3)
[10] = target: SBK1 (human) (UniProt Q52WX2)
[11] = target: DSTYK (human) (UniProt Q6XUX3)
[12] = target: STK38 (human) (UniProt Q15208)
[13] = target: ROCK1 (human) (UniProt Q13464)
[14] = target: PKN3 (M.tuberculosis) (UniProt Q6P5Z2)
[15] = target: ERN1 (human) (UniProt O75460)
[16] = target: MAK (human) (UniProt P20794)
[17] = target: TIE1 (human) (UniProt P35590)
[18] = target: EPHB6 (human) (UniProt O15197)
[19] = target: DYRK2 (human) (UniProt Q92630)
[20] = target: CDKL3 (human) (UniProt Q8IVW4)
[21] = target: ICK (human) (UniProt Q9UPZ9)
[22] = target: PIP5K1C (human) (UniProt O60331)
PIP5K1C (human), sequence (O60331 whole entry, looked up): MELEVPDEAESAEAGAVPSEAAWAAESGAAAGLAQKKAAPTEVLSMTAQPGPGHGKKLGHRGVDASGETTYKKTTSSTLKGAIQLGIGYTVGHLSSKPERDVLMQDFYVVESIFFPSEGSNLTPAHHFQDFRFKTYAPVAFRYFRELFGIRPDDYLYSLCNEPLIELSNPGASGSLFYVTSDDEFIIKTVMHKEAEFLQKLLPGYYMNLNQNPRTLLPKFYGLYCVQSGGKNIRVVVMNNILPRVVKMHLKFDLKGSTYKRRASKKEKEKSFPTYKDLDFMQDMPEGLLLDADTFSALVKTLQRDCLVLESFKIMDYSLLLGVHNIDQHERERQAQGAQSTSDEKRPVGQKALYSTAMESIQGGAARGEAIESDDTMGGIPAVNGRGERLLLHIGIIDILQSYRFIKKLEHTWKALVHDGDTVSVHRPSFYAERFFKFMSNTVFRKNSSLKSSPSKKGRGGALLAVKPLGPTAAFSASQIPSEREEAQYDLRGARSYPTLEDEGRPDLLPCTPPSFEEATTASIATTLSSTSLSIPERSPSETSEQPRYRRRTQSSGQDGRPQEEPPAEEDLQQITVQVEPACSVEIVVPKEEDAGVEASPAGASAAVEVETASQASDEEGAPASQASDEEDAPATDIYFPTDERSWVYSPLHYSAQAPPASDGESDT

[23] = target: NEK11 (human) (UniProt Q8NG66)
[24] = target: NEK4 (human) (UniProt P51957)
NEK4 (human), sequence (P51957 whole entry, looked up): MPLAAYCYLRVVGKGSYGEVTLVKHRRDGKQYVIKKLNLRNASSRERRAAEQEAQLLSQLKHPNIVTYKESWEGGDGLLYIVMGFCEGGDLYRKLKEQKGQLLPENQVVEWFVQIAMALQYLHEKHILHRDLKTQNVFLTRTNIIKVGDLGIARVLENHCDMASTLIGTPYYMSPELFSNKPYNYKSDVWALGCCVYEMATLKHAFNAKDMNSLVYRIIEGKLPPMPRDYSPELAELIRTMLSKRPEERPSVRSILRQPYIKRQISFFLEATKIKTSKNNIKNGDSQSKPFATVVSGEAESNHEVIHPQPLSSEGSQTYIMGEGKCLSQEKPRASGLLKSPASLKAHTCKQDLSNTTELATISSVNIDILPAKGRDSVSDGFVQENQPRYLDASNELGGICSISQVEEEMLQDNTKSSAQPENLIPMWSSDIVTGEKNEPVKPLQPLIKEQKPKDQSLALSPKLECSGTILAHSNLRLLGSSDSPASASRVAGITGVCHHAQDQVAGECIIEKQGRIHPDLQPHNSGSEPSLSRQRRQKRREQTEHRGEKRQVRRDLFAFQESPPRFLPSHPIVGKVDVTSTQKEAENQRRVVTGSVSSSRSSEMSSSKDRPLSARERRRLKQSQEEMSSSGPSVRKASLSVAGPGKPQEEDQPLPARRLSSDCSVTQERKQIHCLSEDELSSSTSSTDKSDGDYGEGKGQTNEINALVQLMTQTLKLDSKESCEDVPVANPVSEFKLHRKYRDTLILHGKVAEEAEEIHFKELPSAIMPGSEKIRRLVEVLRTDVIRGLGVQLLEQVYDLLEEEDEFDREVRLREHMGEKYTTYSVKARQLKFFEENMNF

[25] = target: TBK1 (human) (UniProt Q9UHD2)
[26] = target: HIPK4 (human) (UniProt Q8NE63)
[27] = target: STK32A (human) (UniProt Q8WU08)
[28] = target: TRPM6 (human) (UniProt Q9BX84)
[29] = target: ERBB3 (human) (UniProt P21860)
[30] = target: NEK3 (human) (UniProt P51956)
[31] = target: MAP2K5 (human) (UniProt Q13163)
MAP2K5 (human), sequence (Q13163 whole entry, looked up): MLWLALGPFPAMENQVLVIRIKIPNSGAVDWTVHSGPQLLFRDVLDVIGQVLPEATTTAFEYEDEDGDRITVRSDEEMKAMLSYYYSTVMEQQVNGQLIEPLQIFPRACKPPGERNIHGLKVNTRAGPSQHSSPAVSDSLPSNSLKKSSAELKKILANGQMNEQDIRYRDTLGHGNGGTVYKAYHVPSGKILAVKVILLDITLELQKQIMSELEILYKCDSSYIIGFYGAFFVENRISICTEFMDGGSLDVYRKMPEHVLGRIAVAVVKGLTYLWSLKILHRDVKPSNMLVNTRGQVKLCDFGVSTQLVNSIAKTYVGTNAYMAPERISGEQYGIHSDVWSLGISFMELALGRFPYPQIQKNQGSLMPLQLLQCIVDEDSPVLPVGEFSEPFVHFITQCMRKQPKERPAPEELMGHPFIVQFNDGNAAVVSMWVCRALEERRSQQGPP

[32] = target: PI4KB (human) (UniProt Q9UBF8)
[33] = target: LRRK2 (human) (UniProt Q5S007)
LRRK2 (human), sequence (Q5S007 whole entry, looked up): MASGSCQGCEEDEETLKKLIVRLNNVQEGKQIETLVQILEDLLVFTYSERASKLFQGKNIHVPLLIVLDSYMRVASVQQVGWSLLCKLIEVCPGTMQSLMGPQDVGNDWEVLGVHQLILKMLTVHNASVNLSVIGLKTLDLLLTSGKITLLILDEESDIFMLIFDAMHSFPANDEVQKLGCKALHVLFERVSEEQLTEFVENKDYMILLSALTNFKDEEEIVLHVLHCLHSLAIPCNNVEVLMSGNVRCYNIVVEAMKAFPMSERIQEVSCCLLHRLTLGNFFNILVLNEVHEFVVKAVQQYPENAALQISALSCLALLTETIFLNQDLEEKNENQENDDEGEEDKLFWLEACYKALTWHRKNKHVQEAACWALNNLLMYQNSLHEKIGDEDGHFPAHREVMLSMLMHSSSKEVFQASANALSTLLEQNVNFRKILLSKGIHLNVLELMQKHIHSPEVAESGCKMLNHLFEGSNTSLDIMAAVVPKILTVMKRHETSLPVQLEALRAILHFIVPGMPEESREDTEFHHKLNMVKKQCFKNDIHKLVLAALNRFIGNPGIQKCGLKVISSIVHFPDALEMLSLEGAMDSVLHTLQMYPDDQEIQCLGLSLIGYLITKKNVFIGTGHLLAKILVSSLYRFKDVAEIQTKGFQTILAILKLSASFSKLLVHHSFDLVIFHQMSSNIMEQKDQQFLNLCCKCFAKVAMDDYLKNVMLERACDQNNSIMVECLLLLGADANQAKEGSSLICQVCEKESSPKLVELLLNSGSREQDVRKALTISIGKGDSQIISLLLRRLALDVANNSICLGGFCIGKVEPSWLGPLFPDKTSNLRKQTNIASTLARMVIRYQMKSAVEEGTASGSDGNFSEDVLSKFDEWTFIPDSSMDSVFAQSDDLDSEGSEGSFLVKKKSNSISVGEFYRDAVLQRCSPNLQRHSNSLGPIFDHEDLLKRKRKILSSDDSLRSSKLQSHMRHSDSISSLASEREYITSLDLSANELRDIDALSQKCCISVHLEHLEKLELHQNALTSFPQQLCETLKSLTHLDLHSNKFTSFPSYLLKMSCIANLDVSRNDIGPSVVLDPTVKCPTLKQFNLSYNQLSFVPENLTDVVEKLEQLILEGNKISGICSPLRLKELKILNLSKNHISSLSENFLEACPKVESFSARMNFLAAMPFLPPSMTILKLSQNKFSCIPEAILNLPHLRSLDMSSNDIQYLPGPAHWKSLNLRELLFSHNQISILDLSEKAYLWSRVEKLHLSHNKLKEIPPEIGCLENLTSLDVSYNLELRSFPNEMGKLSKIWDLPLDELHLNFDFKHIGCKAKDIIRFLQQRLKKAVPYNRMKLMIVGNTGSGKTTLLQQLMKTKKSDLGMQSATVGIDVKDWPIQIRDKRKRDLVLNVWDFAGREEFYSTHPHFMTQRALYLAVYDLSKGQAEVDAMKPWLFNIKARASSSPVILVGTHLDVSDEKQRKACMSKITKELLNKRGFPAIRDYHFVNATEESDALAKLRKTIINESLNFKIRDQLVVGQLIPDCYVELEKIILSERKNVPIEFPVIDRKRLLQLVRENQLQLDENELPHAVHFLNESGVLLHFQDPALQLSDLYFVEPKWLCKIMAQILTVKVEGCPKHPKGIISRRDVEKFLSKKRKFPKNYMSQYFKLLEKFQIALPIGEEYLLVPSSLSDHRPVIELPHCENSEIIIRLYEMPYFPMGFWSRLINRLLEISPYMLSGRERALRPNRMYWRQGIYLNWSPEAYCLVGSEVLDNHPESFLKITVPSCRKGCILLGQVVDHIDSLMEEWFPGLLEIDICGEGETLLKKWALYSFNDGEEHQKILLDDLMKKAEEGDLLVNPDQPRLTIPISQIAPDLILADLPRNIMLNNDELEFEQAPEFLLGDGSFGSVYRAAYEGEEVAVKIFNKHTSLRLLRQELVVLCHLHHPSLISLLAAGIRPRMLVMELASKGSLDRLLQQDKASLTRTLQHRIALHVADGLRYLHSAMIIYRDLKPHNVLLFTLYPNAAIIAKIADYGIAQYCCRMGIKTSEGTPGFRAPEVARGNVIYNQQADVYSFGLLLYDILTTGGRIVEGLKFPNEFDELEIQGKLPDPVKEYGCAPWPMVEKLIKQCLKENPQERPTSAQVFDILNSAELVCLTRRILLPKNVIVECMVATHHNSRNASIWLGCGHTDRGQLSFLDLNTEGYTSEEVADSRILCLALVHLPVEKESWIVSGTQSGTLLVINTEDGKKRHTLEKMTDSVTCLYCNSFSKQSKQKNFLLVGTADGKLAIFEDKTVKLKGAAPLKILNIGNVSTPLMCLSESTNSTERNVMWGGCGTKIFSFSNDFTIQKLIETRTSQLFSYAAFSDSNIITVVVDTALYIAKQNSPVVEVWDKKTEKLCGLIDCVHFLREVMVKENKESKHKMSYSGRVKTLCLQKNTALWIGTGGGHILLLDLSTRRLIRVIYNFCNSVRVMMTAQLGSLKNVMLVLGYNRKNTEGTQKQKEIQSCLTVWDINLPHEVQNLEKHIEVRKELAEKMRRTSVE

[34] = system: PIK3CA (human), P42336 [E545A]
[35] = target: MATK (human) (UniProt P42679)
MATK (human), sequence (P42679 whole entry, looked up): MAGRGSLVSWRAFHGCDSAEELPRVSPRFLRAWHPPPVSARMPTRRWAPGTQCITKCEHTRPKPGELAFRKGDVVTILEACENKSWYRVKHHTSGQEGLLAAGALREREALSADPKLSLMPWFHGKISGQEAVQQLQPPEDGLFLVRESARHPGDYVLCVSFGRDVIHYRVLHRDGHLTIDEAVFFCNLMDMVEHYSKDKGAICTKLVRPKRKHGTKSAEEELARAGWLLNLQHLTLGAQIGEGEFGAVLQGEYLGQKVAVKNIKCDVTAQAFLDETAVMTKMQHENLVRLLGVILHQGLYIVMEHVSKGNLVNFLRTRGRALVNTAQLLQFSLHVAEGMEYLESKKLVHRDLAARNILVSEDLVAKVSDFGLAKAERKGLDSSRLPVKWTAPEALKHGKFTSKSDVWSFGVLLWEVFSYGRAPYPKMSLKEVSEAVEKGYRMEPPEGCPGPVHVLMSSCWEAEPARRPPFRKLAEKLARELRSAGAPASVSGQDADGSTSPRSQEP

[36] = target: HUNK (human) (UniProt P57058)
[37] = target: IRAK1 (human) (UniProt P51617)
[38] = target: OXSR1 (human) (UniProt O95747)
[39] = system: FLT3 (human), P36888 [K663Q]
[40] = target: CDKL5 (human) (UniProt O76039)

SMILES: CN(C)C/C=C/C(=O)Nc1cccc(Nc2ncc3c(n2)N(C)c2ccccc2C(=O)N3C)c1
- kinase still bound, per cent of control [1]: 83%
- kinase still bound, per cent of control [2]: 100%
- kinase still bound, per cent of control [3]: 63%
- kinase still bound, per cent of control [4]: 5.4%
- kinase still bound, per cent of control [5]: 85%
- kinase still bound, per cent of control [6]: 78%
- kinase still bound, per cent of control [7]: 54%
- kinase still bound, per cent of control [8]: 100%
- kinase still bound, per cent of control [9]: 100%
- kinase still bound, per cent of control [10]: 7.6%
- kinase still bound, per cent of control [11]: 18%
- kinase still bound, per cent of control [12]: 74%
- kinase still bound, per cent of control [13]: 49%
- kinase still bound, per cent of control [14]: 42%
- kinase still bound, per cent of control [15]: 69%
- kinase still bound, per cent of control [16]: 100%
- kinase still bound, per cent of control [17]: 5.4%
- kinase still bound, per cent of control [18]: 4.3%
- kinase still bound, per cent of control [19]: 47%
- kinase still bound, per cent of control [20]: 100%
- kinase still bound, per cent of control [21]: 70%
- kinase still bound, per cent of control [22]: 11%
- kinase still bound, per cent of control [23]: 77%
- kinase still bound, per cent of control [24]: 87%
- kinase still bound, per cent of control [25]: 58%
- kinase still bound, per cent of control [26]: 76%
- kinase still bound, per cent of control [27]: 100%
- kinase still bound, per cent of control [28]: 91%
- kinase still bound, per cent of control [29]: 89%
- kinase still bound, per cent of control [30]: 58%
- kinase still bound, per cent of control [31]: 45%
- kinase still bound, per cent of control [32]: 87%
- kinase still bound, per cent of control [33]: 31%
- kinase still bound, per cent of control [34]: 67%
- kinase still bound, per cent of control [35]: 69%
- kinase still bound, per cent of control [36]: 47%
- kinase still bound, per cent of control [37]: 19%
- kinase still bound, per cent of control [38]: 25%
- kinase still bound, per cent of control [39]: 37%
- kinase still bound, per cent of control [40]: 100%

SMILES: O=C(NOC[C@H](O)CO)c1ccc(F)c(F)c1Nc1ccc(I)cc1F
- kinase still bound, per cent of control [1]: 78%
- kinase still bound, per cent of control [2]: 53%
- kinase still bound, per cent of control [3]: 100%
- kinase still bound, per cent of control [4]: 50%
- kinase still bound, per cent of control [5]: 49%
- kinase still bound, per cent of control [6]: 93%
- kinase still bound, per cent of control [7]: 56%
- kinase still bound, per cent of control [8]: 77%
- kinase still bound, per cent of control [9]: 100%
- kinase still bound, per cent of control [10]: 100%
- kinase still bound, per cent of control [11]: 100%
- kinase still bound, per cent of control [12]: 100%
- kinase still bound, per cent of control [13]: 100%
- kinase still bound, per cent of control [14]: 91%
- kinase still bound, per cent of control [15]: 97%
- kinase still bound, per cent of control [16]: 100%
- kinase still bound, per cent of control [17]: 54%
- kinase still bound, per cent of control [18]: 87%
- kinase still bound, per cent of control [19]: 95%
- kinase still bound, per cent of control [20]: 98%
- kinase still bound, per cent of control [21]: 84%
- kinase still bound, per cent of control [22]: 100%
- kinase still bound, per cent of control [23]: 91%
- kinase still bound, per cent of control [24]: 78%
- kinase still bound, per cent of control [25]: 85%
- kinase still bound, per cent of control [26]: 100%
- kinase still bound, per cent of control [27]: 80%
- kinase still bound, per cent of control [28]: 100%
- kinase still bound, per cent of control [29]: 100%
- kinase still bound, per cent of control [30]: 100%
- kinase still bound, per cent of control [31]: 86%
- kinase still bound, per cent of control [32]: 100%
- kinase still bound, per cent of control [33]: 86%
- kinase still bound, per cent of control [34]: 45%
- kinase still bound, per cent of control [35]: 100%
- kinase still bound, per cent of control [36]: 100%
- kinase still bound, per cent of control [37]: 100%
- kinase still bound, per cent of control [38]: 100%
- kinase still bound, per cent of control [40]: 67%

— the kinase profiling compilation of Christmann-Franck et al. (2016)
